SMILES strings stand for the structures. Some results are limits rather than exact numbers.

As a reminder, the EC50 is the concentration giving half of the maximal effect. A high value points to weaker potency.

Sequence of human TLR7 (Q9NYK1 27-1049): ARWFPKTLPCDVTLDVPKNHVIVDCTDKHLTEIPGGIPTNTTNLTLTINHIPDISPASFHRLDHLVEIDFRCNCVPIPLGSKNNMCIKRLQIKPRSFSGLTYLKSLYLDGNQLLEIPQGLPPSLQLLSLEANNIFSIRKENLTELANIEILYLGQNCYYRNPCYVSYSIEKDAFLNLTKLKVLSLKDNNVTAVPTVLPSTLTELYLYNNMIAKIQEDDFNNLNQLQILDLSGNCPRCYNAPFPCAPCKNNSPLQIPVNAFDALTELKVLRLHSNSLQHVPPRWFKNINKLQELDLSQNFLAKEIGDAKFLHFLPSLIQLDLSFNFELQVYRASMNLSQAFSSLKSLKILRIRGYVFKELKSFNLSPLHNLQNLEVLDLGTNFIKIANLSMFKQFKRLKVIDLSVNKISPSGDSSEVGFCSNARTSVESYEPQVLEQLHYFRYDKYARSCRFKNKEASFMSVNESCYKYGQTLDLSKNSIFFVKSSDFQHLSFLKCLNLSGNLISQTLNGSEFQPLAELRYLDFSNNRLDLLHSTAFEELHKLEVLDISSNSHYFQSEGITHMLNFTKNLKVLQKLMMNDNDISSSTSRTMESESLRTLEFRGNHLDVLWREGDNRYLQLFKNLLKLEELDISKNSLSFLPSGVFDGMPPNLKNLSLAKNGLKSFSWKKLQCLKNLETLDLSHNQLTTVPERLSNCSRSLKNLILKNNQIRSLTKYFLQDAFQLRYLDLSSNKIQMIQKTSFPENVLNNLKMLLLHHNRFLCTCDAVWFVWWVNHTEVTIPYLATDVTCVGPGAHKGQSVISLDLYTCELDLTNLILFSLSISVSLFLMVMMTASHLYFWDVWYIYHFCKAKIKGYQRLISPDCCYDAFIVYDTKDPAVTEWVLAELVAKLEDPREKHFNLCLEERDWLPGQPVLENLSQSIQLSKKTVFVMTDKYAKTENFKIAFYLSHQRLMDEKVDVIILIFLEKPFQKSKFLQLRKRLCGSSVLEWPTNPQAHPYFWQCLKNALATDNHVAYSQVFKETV

In the assay the target is human TLR7 (Homo sapiens (Human), UniProt Q9NYK1). In words: Reporter Gene Assay (HEK293 stably transfected with human TLR7 and NF-kB-driven luciferase reporter). Type of assay: cell-based. The conditions noted are these: HEK293 cells stably transfected with human TLR7 and pNifty-Luciferase; 7 hours incubation; EC50 relative to the activity of resiquimod set to 100%. How it is done:
As a control assay, normal Hek293 transfected with pNifty-Luc were used. […] Bright-Glo™ Luciferase assay buffer and substrate were supplied by Promega #E263B and #E264B (assay substrate and buffer respectively). 384 well clear-bottom plates were supplied by Greiner bio-one (#789163-G) and were custom bar-coded plates.
Cells were plated at 25,000 cells/well in 384-well plates in a final volume of 50 μl of media. Cells were allowed to adhere to the plates after overnight (18 hours) culture at 37° C. and 5% CO2. Serially diluted experimental and positive control compounds were then dispensed to each well and incubated for 7 hours at 37° C. and 5% CO2. Cells stimulated with DMSO alone also serve as negative controls. After the incubation, 30 μl of the pre-mix assay buffer and substrate buffer were added to each well according to manufacturer's instructions. The luminescence signal was read on a CLIPR machine with an integration time of 20 seconds per plate.
Background: A reporter such as luciferase makes a cellular process visible.
Compound `CCCCCNc1nc(N)nc2ccn(Cc3ccc(C(=O)OCCN(C)C)cc3OC)c12` [Example 2, 2-(dimethylamino)ethyl 4-((2-amino-4-(pentylamino)-5H-pyrrolo[3,2-d]pyrimidin-5-yl)methyl)-3-methoxybenzoate] showed an EC50 of less than 0.005 µM.
`CCCCCNc1nc(N)nc2ccn(Cc3cc(OCC(=O)OCCN4CCN(C)CC4)ccc3OC)c12` [Example 29, 2-(4-methylpiperazin-1-yl)ethyl 2-(3-{[2-amino-4-(pentylamino)-5H-pyrrolo[3,2-d]pyrimidin-5-yl]methyl}-4-methoxyphenoxy)acetate] registered an EC50 of 0.2 µM.
As for `CCCC[C@@H](CO)Nc1nc(N)nc2ccn(Cc3cc(CCC(=O)OCC(=O)N4CCOCC4)ccc3OC)c12` [Example 12, (S)-2-morpholino-2-oxoethyl 3-(3-((2-amino-4-((1-hydroxyhexan-2-yl)amino)-5H-pyrrolo[3,2-d]pyrimidin-5-yl)methyl)-4-methoxyphenyl)propanoate], the figure is 0.03 µM; as for `CCCCCNc1nc(N)nc2ccn(Cc3cc(OCC(=O)OCCN(C)C)ccc3OC)c12` [Example 26, 2-(dimethylamino)ethyl 2-(3-{[2-amino-4-(pentylamino)-5H-pyrrolo[3,2-d]pyrimidin-5-yl]methyl}-4-methoxyphenoxy)acetate], 0.3 µM; as for `CCCCCNc1nc(N)nc2ccn(Cc3cc(CN4CCNCC4)ccc3OC)c12` [Example 31, 5-(2-methoxy-5-(piperazin-1-ylmethyl)benzyl)-N4-pentyl-5H-pyrrolo[3,2-d]pyrimidine-2,4-diamine], 0.02 µM.
The compound `CCCCCNc1nc(N)nc2ccn(Cc3cc(CC(=O)OC)ccc3OC)c12` [Example 5, methyl 2-(3-((2-amino-4-(pentylamino)-5H-pyrrolo[3,2-d]pyrimidin-5-yl)methyl)-4-methoxyphenyl)acetate] yielded a half-maximal effective concentration (EC50) of 0.01 µM. Against the preceding compound, the EC50 is about 2-fold lower.
With `CCCC[C@@H](CO)Nc1nc(N)nc2ccn(Cc3cc(CN4CCNCC4)ccc3OC)c12` [Example 30, (S)-2-((2-amino-5-(2-methoxy-5-(piperazin-1-ylmethyl)benzyl)-5H-pyrrolo[3,2-d]pyrimidin-4-yl)amino)hexan-1-ol] the figure was 0.08 µM; with `CCCCCNc1nc(N)nc2ccn(Cc3ccc(C(=O)OCCOCCN(C)C)cc3OC)c12` [Example 3, 2-(2-(dimethylamino)ethoxy)ethyl 4-((2-amino-4-(pentylamino)-5H-pyrrolo[3,2-d]pyrimidin-5-yl)methyl)-3-methoxybenzoate], 0.02 µM.
With `CCCCCNc1nc(N)nc2ccn(Cc3cc(CC(=O)OCC(=O)N4CCOCC4)ccc3OC)c12` [Example 9, 2-morpholino-2-oxoethyl 2-(3-((2-amino-4-(pentylamino)-5H-pyrrolo[3,2-d]pyrimidin-5-yl)methyl)-4-methoxyphenyl)acetate] the figure was 0.01 µM; with `CCCCCNc1nc(N)nc2ccn(Cc3ccc(CC(=O)OCC(=O)N(CCC)CCC)cc3OC)c12` [Example 19, 2-(dipropylcarbamoyl)methyl 2-(4-{[2-amino-4-(pentylamino)-5H-pyrrolo[3,2-d]pyrimidin-5-yl]methyl}-3-methoxyphenyl)acetate], 0.2 µM.
With `CCCC[C@@H](CO)Nc1nc(N)nc2ccn(Cc3ccc(CC(=O)OCC(=O)N4CCOCC4)cc3OC)c12` [Example 13, (S)-2-morpholino-2-oxoethyl 2-(4-((2-amino-4-((1-hydroxyhexan-2-yl)amino)-5H-pyrrolo[3,2-d]pyrimidin-5-yl)methyl)-3-methoxyphenyl)acetate] the figure was 0.01 µM.
`CCCCCNc1nc(N)nc2ccn(Cc3ccc(CCC(=O)OCC(=O)N4CCOCC4)cc3OC)c12` [Example 11, 2-(morpholin-4-yl)-2-oxoethyl 3-(4-{[2-amino-4-(pentylamino)-5H-pyrrolo[3,2-d]pyrimidin-5-yl]methyl}-3-methoxyphenyl)propanoate] yielded an EC50 of 0.02 µM.
In the case of `CCCCCNc1nc(N)nc2ccn(Cc3ccc(CC(=O)OCCN4CCOCC4)cc3OC)c12` [Example 24, 2-(morpholin-4-yl)ethyl 2-(4-{[2-amino-4-(pentylamino)-5H-pyrrolo[3,2-d]pyrimidin-5-yl]methyl}-3-methoxyphenyl)acetate], a half-maximal response (EC50) required 0.008 µM.
On to `CCCCCNc1nc(N)nc2ccn(Cc3cc(OCC(=O)OCCN4CCNCC4)ccc3OC)c12` [Example 27, 2-(piperazin-1-yl)ethyl 2-(3-{[2-amino-4-(pentylamino)-5H-pyrrolo[3,2-d]pyrimidin-5-yl]methyl}-4-methoxyphenoxy)acetate], for which the EC50 amounted to 0.5 µM.
With `CCCCCNc1nc(N)nc2ccn(Cc3ccc(CN4CCNCC4)cc3OC)c12` [Example 32, 5-(2-methoxy-4-(piperazin-1-ylmethyl)benzyl)-N4-pentyl-5H-pyrrolo[3,2-d]pyrimidine-2,4-diamine] the figure was less than 0.005 µM.
With `CCCCCNc1nc(N)nc2ccn(Cc3ccc(C(=O)OC)cc3OC)c12` [Example 1, methyl 4-((2-amino-4-(pentylamino)-5H-pyrrolo[3,2-d]pyrimidin-5-yl)methyl)-3-methoxybenzoate] the figure was 0.01 µM; with `CCCC[C@@H](CO)Nc1nc(N)nc2ccn(Cc3ccc(CCC(=O)OCC(=O)N4CCOCC4)cc3OC)c12` [Example 15, (S)-2-morpholino-2-oxoethyl 3-(4-((2-amino-4-((1-hydroxyhexan-2-yl)amino)-5H-pyrrolo[3,2-d]pyrimidin-5-yl)methyl)-3-methoxyphenyl)propanoate], 0.02 µM; with `CCCC[C@@H](CO)Nc1nc(N)nc2ccn(Cc3cc(CC(=O)OCC(=O)N4CCOCC4)ccc3OC)c12` [Example 14, (S)-2-morpholino-2-oxoethyl 2-(3-((2-amino-4-((1-hydroxyhexan-2-yl)amino)-5H-pyrrolo[3,2-d]pyrimidin-5-yl)methyl)-4-methoxyphenyl)acetate], 0.01 µM.
With `CCCCCNc1nc(N)nc2ccn(Cc3cc(C(=O)OC)ccc3OC)c12` [Example 4, methyl 3-((2-amino-4-(pentylamino)-5H-pyrrolo[3,2-d]pyrimidin-5-yl)methyl)-4-methoxybenzoate] the figure was less than 0.005 µM.
As for `CCCCCNc1nc(N)nc2ccn(Cc3ccc(CC(=O)OCCN4CCNCC4)cc3OC)c12` [Example 25, 2-(piperazin-1-yl)ethyl 2-(4-{[2-amino-4-(pentylamino)-5H-pyrrolo[3,2-d]pyrimidin-5-yl]methyl}-3-methoxyphenyl)acetate], the midpoint of the response, the EC50, lay at 0.03 µM.
As for `CCCCCNc1nc(N)nc2ccn(Cc3ccc(CC(=O)OCC(=O)OCc4ccccc4)cc3OC)c12` [Example 18, 2-(benzyloxy)-2-oxoethyl 2-(4-{[2-amino-4-(pentylamino)-5H-pyrrolo[3,2-d]pyrimidin-5-yl]methyl}-3-methoxyphenyl)acetate], the figure is 0.2 µM.
As for `CCCCCNc1nc(N)nc2ccn(Cc3ccc(CC(=O)OCCN4CCN(C)CC4)cc3OC)c12` [Example 21, 2-(4-methylpiperazin-1-yl)ethyl 2-(4-{[2-amino-4-(pentylamino)-5H-pyrrolo[3,2-d]pyrimidin-5-yl]methyl}-3-methoxyphenyl)acetate], the figure is less than 0.005 µM.
With `CCCC[C@@H](CO)Nc1nc(N)nc2ccn(Cc3ccc(CN4CCNCC4)cc3OC)c12` [Example 33, (S)-2-((2-amino-5-(2-methoxy-4-(piperazin-1-ylmethyl)benzyl)-5H-pyrrolo[3,2-d]pyrimidin-4-yl)amino)hexan-1-ol] the figure was 0.007 µM.

The record behind these values is patent publication US10407431B2, “Compounds and compositions as toll-like receptor 7 agonists” (NOVARTIS AG, priority 2014, dated 2019).
